Measured values taken from patent US12172983B2, “EGFR inhibitors” (Blueprint Medicines Corporation, priority 2019, dated 2024).
Read-outs that look alike come from different tables or passages of the source.

What was measured:
EGFR (L858R T790M C797S) = biological target: T1, EGFR (L858R T790M C797S) (Homo sapiens, UniProt P00533, C797S/L858R/T790M); test: Biochemical EGFR inhibition assay (Caliper mobility shift), EGFR LRTMCS mutant; conditions: inhibitory activity against EGFR LRTMCS mutant; apparent IC50; read-out: Ext Enz LRTMCS
T1 construct: purchased SignalChem E10-122VG
Summary of the method: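 Caliper mobility shift read-out: product and substrate peptides separated by electrophoresis and quantified. Reactions at 25° C. taken to 10–20% peptide phosphorylation, quenched with 35 mM EDTA. Apparent IC50 from percent activity vs log [compound].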

[1] = system: phosphorylation of EGFR (Tyr1068) in NCI-H1975 cell line that harbors the EGFR L858R T790M mutations; test: NCI-H1975 pEGFR AlphaLISA assay; format: cell-based; conditions: 4-5 hours incubation, read-out: Ext pEGFR H1975
Summary of the method: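 Phospho-EGFR Tyr1068 AlphaLISA readout: lysates taken from compound-treated H1975 cells (L858R T790M EGFR) after a 4-5 h exposure at 37 °C. Cells had adhered overnight beforehand. IC50 derived by plotting % pEGFR inhibition against log compound concentration.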

[2] = Homo sapiens, NCI-H1975, inhibition of phosphorylation of mutant EGFR in NCI-H1975 cells
[3] = inhibition of phosphorylation of mutant EGFR in NCI-H1975 cells

T1 sequence (P00533 25-1210 T790M/C797S/L858R): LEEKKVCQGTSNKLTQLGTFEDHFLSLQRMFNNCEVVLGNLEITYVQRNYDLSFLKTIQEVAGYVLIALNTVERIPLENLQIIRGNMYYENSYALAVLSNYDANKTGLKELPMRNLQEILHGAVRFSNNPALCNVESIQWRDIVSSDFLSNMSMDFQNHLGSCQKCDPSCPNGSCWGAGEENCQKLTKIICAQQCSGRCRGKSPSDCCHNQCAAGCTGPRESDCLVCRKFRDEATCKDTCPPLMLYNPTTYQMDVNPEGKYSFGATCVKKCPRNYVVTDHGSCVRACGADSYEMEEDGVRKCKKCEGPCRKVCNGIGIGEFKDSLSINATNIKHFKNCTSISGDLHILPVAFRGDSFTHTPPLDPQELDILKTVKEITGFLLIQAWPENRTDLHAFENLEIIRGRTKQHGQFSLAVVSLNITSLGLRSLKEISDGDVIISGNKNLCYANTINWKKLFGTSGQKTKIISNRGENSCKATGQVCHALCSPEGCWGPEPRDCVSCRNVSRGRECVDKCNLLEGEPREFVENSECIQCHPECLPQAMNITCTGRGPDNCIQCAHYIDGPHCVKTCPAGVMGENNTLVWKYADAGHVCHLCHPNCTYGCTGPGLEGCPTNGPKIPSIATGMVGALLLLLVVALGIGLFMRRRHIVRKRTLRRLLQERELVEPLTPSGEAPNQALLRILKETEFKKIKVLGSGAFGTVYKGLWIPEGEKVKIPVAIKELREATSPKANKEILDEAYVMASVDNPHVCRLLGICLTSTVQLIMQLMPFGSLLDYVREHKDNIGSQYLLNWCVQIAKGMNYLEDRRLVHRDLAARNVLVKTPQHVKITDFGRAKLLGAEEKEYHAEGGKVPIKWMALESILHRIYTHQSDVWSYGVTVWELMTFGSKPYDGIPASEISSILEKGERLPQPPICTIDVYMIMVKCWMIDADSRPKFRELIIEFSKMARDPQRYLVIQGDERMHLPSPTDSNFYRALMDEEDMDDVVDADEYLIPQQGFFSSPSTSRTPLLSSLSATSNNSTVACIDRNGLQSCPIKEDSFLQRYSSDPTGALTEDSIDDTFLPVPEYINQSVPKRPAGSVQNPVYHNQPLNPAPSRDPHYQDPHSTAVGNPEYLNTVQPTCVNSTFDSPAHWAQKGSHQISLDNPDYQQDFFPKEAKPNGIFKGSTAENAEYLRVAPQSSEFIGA

Row | Compound | IC50 (EGFR (L858R T790M C797S)) | IC50 [1, 2] | IC50 [1, 3]
1 | CC(C)c1ccc(N2CC(CS(C)(=O)=O)C2)c2cnc(Nc3ccnc(N4CC[C@@](C)(O)[C@@H](F)C4)n3)cc12 (single isomer, unassigned) [Compound 56] | ≤ 15 nM | 10.1 to 20 nM | –
2 | CC(C)c1ccc(N2C[C@H](CS(C)(=O)=O)[C@H]2C)c2cnc(Nc3cnnc(N4CC[C@@H](O)[C@@](C)(F)C4)n3)cc12 (single isomer, unassigned) [Compound 130] | ≤ 15 nM | ≤ 10 nM | –
3 | CO[C@H]1CN(c2nccc(Nc3cc4c(C(C)C)ccc(N5C[C@H](CS(C)(=O)=O)[C@H]5C)c4cn3)n2)C[C@@H](F)[C@H]1O (racemic) [Compound 200, (3R,4S,5S)-3-fluoro-1-(4-((5-isopropyl-8-((2R,3S)-2-methyl-3-((methylsulfonyl)methyl)azetidin-1-yl)isoquinolin-3-yl)amino)pyrimidin-2-yl)-5-methoxypiperidin-4-ol and (3S,4R,5R)-3-fluoro-1-(4-((5-isopropyl-8-((2R,3S)-2-methyl-3-((methylsulfonyl)methyl)azetidin-1-yl)isoquinolin-3-yl)amino)pyrimidin-2-yl)-5-methoxypiperidin-4-ol] | 15.1 to 20 nM | ≤ 10 nM | –
4 | CC(C)c1ccc(N2C[C@H](CS(C)(=O)=O)[C@H]2C)c2cnc(Nc3ccnc(N4CC[C@@H](OCCN)[C@@](C)(F)C4)n3)cc12 [Compound 241, N-{2-[(3S,4R)-4-(2-aminoethoxy)-3-fluoro-3-methylpiperidin-1-yl]pyrimidin-4-yl}-8-[(2R,3S)-3-(methanesulfonylmethyl)-2-methylazetidin-1-yl]-5-(propan-2-yl)isoquinolin-3-amine] | ≤ 15 nM | 10.1 to 20 nM | –
5 | CC(C)c1ccc(N2C[C@H](CS(C)(=O)=O)[C@H]2C)c2cnc(Nc3ccnc(N4CC[C@@H](OCCN(C)C)C(F)(F)C4)n3)cc12 (single isomer, unassigned) [Compound 305, N-{2-[(4S)-4-[2-(dimethylamino)ethoxy]-3,3-difluoropiperidin-1-yl]pyrimidin-4-yl}-8-[(2R,3S)-3-(methanesulfonylmethyl)-2-methylazetidin-1-yl]-5-(propan-2-yl)isoquinolin-3-amine or N-{2-[(4R)-4-[2-(dimethylamino)ethoxy]-3,3-difluoropiperidin-1-yl]pyrimidin-4-yl}-8-[(2R,3S)-3-(methanesulfonylmethyl)-2-methylazetidin-1-yl]-5-(propan-2-yl)isoquinolin-3-amine] | ≤ 15 nM | – | ≤ 10 nM
6 | CC(C)c1ccc(N2CC(CS(C)(=O)=O)C2)c2cnc(Nc3ccnc(N4CCC5(CC4)OCCO5)n3)cc12 [Compound 88, N-(2-{1,4-dioxa-8-azaspiro[4.5]decan-8-yl}pyrimidin-4-yl)-8-[3-(methanesulfonylmethyl)azetidin-1-yl]-5-(propan-2-yl)isoquinolin-3-amine] | ≤ 15 nM | 20.1 to 30 nM | –
7 | CC(C)c1ccc(N2C[C@H](CS(C)(=O)=O)[C@H]2C)c2cnc(Nc3ccnc(N4CC[C@H]5COC[C@H]54)n3)cc12 (single isomer, unassigned) [Compound 40] | ≤ 15 nM | ≤ 10 nM | –
8 | CCc1ccc(N2C[C@H](CS(C)(=O)=O)[C@H]2C)c2cnc(Nc3ccnc(N4CC[C@@H](O)[C@@](C)(F)C4)n3)cc12 (single isomer, unassigned) [Compound 65] | ≤ 15 nM | ≤ 10 nM | –
9 | CCS(=O)(=O)C[C@H]1CN(c2ncc(C(C)C)c3cc(Nc4ccnc(N5CC[C@@](C)(O)[C@@H](F)C5)n4)ncc23)[C@@H]1C (single isomer, unassigned) [Compound 190] | ≤ 15 nM | ≤ 10 nM | –
10 | CCS(=O)(=O)C[C@@H]1CN(c2ncc(C(C)C)c3cc(Nc4ccnc(N5CC[C@@H](O)[C@@](C)(F)C5)n4)ncc23)[C@H]1C (single isomer, unassigned) [Compound 189] | ≤ 15 nM | ≤ 10 nM | –
11 | CCS(=O)(=O)C[C@H]1CN(c2ccc(C(C)C)c3cc(Nc4ccnc(N5CC[C@](C)(O)[C@H](F)C5)n4)ncc23)[C@@H]1C (single isomer, unassigned) [Compound 187] | 30.1 to 100 nM | 10.1 to 20 nM | –
12 | CC(C)c1ccc(N2CC(CS(C)(=O)=O)C2)c2cnc(Nc3ccnc(N4CC[C@H](O)[C@H](F)C4)n3)cc12 [Compound 29, (3R,4S)-3-fluoro-1-[4-({8-[3-(methanesulfonylmethyl)azetidin-1-yl]-5-(propan-2-yl)isoquinolin-3-yl}amino)pyrimidin-2-yl]piperidin-4-ol] | ≤ 15 nM | ≤ 10 nM | –
13 | C[C@]1(F)CN(c2nccc(Nc3cc4c(C5CC5)ccc(N5CC(CS(C)(=O)=O)C5)c4cn3)n2)CC[C@H]1O (single isomer, unassigned) [Compound 51] | ≤ 15 nM | 20.1 to 30 nM | –

Results, then the molecule that gave them:

Row | IC50 (EGFR (L858R T790M C797S)) | IC50 [1, 2] | IC50 [1, 3] | Compound
14 | ≤ 15 nM | ≤ 10 nM | – | CC(C)c1ccc(N2CC(CS(C)(=O)=O)C2)c2cnc(Nc3ccnc(N4C[C@@H](F)[C@@H](O)[C@](C)(F)C4)n3)cc12 (single isomer, unassigned) [Compound 156, (3R,4R,5R)-3,5-difluoro-1-[4-({8-[3-(methanesulfonylmethyl)azetidin-1-yl]-5-(propan-2-yl)isoquinolin-3-yl}amino)pyrimidin-2-yl]-3-methylpiperidin-4-ol or (3S,4S,5S)-3,5-difluoro-1-[4-({8-[3-(methanesulfonylmethyl)azetidin-1-yl]-5-(propan-2-yl)isoquinolin-3-yl}amino)pyrimidin-2-yl]-3-methylpiperidin-4-ol]
15 | ≤ 15 nM | 10.1 to 20 nM | – | CO[C@H]1CN(c2nccc(Nc3cc4c(C(C)C)ccc(N5CC(CS(C)(=O)=O)C5)c4cn3)n2)C[C@@H](F)[C@H]1O (racemic) [Compound 147, (3S,4R,5R)-3-fluoro-1-(4-((5-isopropyl-8-(3-((methylsulfonyl)methyl)azetidin-1-yl)isoquinolin-3-yl)amino)pyrimidin-2-yl)-5-methoxypiperidin-4-ol and (3R,4S,5S)-3-fluoro-1-(4-((5-isopropyl-8-(3-((methylsulfonyl)methyl)azetidin-1-yl)isoquinolin-3-yl)amino)pyrimidin-2-yl)-5-methoxypiperidin-4-ol]
16 | ≤ 15 nM | ≤ 10 nM | – | CC(C)c1ccc(N2C[C@@H](CS(C)(=O)=O)[C@@H]2C)c2cnc(Nc3ccnc(N4CC[C@@H]5C[C@H]4CO5)n3)cc12 (single isomer, unassigned) [Compound 41, N-(2-((1S,5R)-6-oxa-2-azabicyclo[3.2.1]octan-2-yl)pyrimidin-4-yl)-5-isopropyl-8-((2S,3R)-2-methyl-3-((methylsulfonyl)methyl)azetidin-1-yl)isoquinolin-3-amine or N-(2-((1R,5S)-6-oxa-2-azabicyclo[3.2.1]octan-2-yl)pyrimidin-4-yl)-5-isopropyl-8-((2S,3R)-2-methyl-3-((methylsulfonyl)methyl)azetidin-1-yl)isoquinolin-3-amine]
17 | ≤ 15 nM | 10.1 to 20 nM | – | CO[C@@H]1CN(c2nccc(Nc3cc4c(C(C)C)ccc(N5C[C@H](CS(C)(=O)=O)[C@H]5C)c4cn3)n2)CC[C@@H]1O (single isomer, unassigned) [Compound 99, (3R,4S)-1-[4-({8-[(2R,3S)-3-(methanesulfonylmethyl)-2-methylazetidin-1-yl]-5-(propan-2-yl)isoquinolin-3-yl}amino)pyrimidin-2-yl]-3-methoxypiperidin-4-ol or (3S,4R)-1-[4-({8-[(2R,3S)-3-(methanesulfonylmethyl)-2-methylazetidin-1-yl]-5-(propan-2-yl)isoquinolin-3-yl}amino)pyrimidin-2-yl]-3-methoxypiperidin-4-ol]
18 | ≤ 15 nM | ≤ 10 nM | – | [2H]C([2H])([2H])O[C@@H]1CCN(c2nccc(Nc3cc4c(C(C)C)cnc(N5CC(CS(C)(=O)=O)C5)c4cn3)n2)C[C@@H]1F [Compound 264, N-{2-[(3S,4R)-3-fluoro-4-(^2H3)methoxypiperidin-1-yl]pyrimidin-4-yl}-8-[3-(methanesulfonylmethyl)azetidin-1-yl]-5-(propan-2-yl)-2,7-naphthyridin-3-amine]
19 | ≤ 15 nM | 30.1 to 50 nM | – | COC1(CCN)CCN(c2nccc(Nc3cc4c(C(C)C)ccc(N5C[C@H](CS(C)(=O)=O)[C@H]5C)c4cn3)n2)CC1 [Compound 221, N-{2-[4-(2-aminoethyl)-4-methoxypiperidin-1-yl]pyrimidin-4-yl}-8-[(2R,3S)-3-(methanesulfonylmethyl)-2-methylazetidin-1-yl]-5-(propan-2-yl)isoquinolin-3-amine]
20 | ≤ 15 nM | – | 10.1 to 20 nM | CC(C)c1ccc(N2CC(CS(C)(=O)=O)C2)c2cnc(Nc3ccnc(N4CC[C@](C)(O)C[C@@H]4C)n3)cc12 (single isomer, unassigned) [Compound 45, (2S,4S)-1-[4-({8-[3-(methanesulfonylmethyl)azetidin-1-yl]-5-(propan-2-yl)isoquinolin-3-yl}amino)pyrimidin-2-yl]-2,4-dimethylpiperidin-4-ol or (2R,4R)-1-[4-({8-[3-(methanesulfonylmethyl)azetidin-1-yl]-5-(propan-2-yl)isoquinolin-3-yl}amino)pyrimidin-2-yl]-2,4-dimethylpiperidin-4-ol]
21 | ≤ 15 nM | ≤ 10 nM | – | CC(C)c1cnc(N2CC([C@H](C)S(C)(=O)=O)C2)c2cnc(Nc3ccnc(N4CC[C@@H](O)[C@@](C)(F)C4)n3)cc12 (single isomer, unassigned) [Compound 126]
